From PubChem BioAssay (NCI)
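Five concentrations, 48 hours, 96-well plates. GI50 marks 50% less growth. TGI denotes the concentration required for complete inhibition of growth.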

Experiments:
Assay in all cases: inhibition of tumour cell growth, NCI panel, 48 h; in the data active = GI50 below about 0.43 µM; inactive = the rest
[1] = test system: HOP-62 NSCLC
[2] = test system: HT29 colon
[3] = test system: IGROV1 ovarian
[4] = test system: U251 CNS
[5] = test system: SF-539 CNS
[6] = test system: CAKI-1 renal
[7] = test system: MOLT-4 leukemia
[8] = test system: OVCAR-5 ovarian

O=c1cc2n(c(=O)[nH]1)C1OC(C(O)C1O)[C@H]2CCO (stereo not given in full)
> 100 µM: TGI [1] | TGI [2] | TGI [3] | TGI [4] | TGI [5] | TGI [6] | TGI [7] | TGI [8]

O=C(CCc1nnc2s/c(=C\c3ccc4c(c3)OCO4)c(=O)n12)Nc1cc(Cl)ccc1Cl
> 100 µM: TGI [1] | TGI [2] | TGI [3] | TGI [4] | TGI [5] | TGI [6] | TGI [7] | TGI [8]

Nc1nc(=O)n(C2CC(O)C(O)C(CO)O2)cc1F (stereo not given)
> 100 µM: TGI [1] | TGI [2] | TGI [3] | TGI [4] | TGI [5] | TGI [7] | TGI [8]

CN(C)c1ccccc1CC(c1c[nH]c2ccccc12)c1c[nH]c2ccccc12
24.7 µM: TGI [4]
23.3 µM: TGI [1]
21.7 µM: TGI [7]
30.5 µM: TGI [8]
17.8 µM: TGI [2]
31 µM: TGI [5]
16.3 µM: TGI [6]
30.9 µM: TGI [3]

O=C(CC1(O)C(=O)Nc2c(Cl)cccc21)c1ccccc1 (stereo not given)
> 100 µM: TGI [1] | TGI [2] | TGI [4] | TGI [6] | TGI [7] | TGI [8]

O=C1C(c2ccc([N+](=O)[O-])cc2)=[N+]([O-])c2ccccc21
> 100 µM: TGI [2] | TGI [3] | TGI [5] | TGI [6] | TGI [7]
36.3 µM: TGI [4]
82.3 µM: TGI [1]
47.5 µM: TGI [8]

Cc1cc2cc(Cl)ccc2nc1C(=O)c1ccccc1
> 100 µM: TGI [1] | TGI [3] | TGI [4] | TGI [5] | TGI [6] | TGI [7] | TGI [8]

COC(=O)CSc1ccccc1
> 100 µM: TGI [1] | TGI [2] | TGI [3] | TGI [4] | TGI [5] | TGI [6] | TGI [7] | TGI [8]

O=c1c2cc(Br)ccc2[nH]c(=S)n1-c1ccc(Br)cc1
> 100 µM: TGI [1] | TGI [2] | TGI [3] | TGI [4] | TGI [5] | TGI [7]

CN(C)c1ccc(/C=C/C(=O)c2ccccc2)cc1Br
> 100 µM: TGI [1] | TGI [8]
33.6 µM: TGI [4]
48.5 µM: TGI [3]
69 µM: TGI [7]
51 µM: TGI [2]
32.9 µM: TGI [6]

COc1ccc(C(=O)C(c2ccc(OC)cc2)C2C(=O)Oc3ccccc32)cc1 (stereo not given)
inactive: GI50 [2] > 100 µM | GI50 [3] > 100 µM | GI50 [5] > 100 µM | GI50 [7] > 100 µM | GI50 [8] > 100 µM
> 100 µM: TGI [2] | TGI [3] | TGI [5] | TGI [7] | TGI [8]

COc1ccc(CN2C(=O)C(Cc3cc(OC)c(OC)c(C)c3OC)N(C(=O)OC(C)C)C(=O)/C2=C/c2cc(OC)c(OC)c(C)c2OC)cc1 (stereo not given)
> 100 µM: TGI [1] | TGI [2] | TGI [3] | TGI [4] | TGI [5] | TGI [6] | TGI [7] | TGI [8]

O=c1oc2c3ccc4ccccc4c3n(CCN3CCOCC3)c2c2ccccc12
> 100 µM: TGI [1] | TGI [2] | TGI [3] | TGI [5] | TGI [6]
18.5 µM: TGI [7]

COc1ccc2nc3cc(Cl)ccc3c(NCCC(=O)OCC(O)C(O)C(O[C@H](C)C(=O)NC(C)C(=O)NC(CCC(N)=O)C(=O)OCc3ccccc3)C(C=O)NC(C)=O)c2c1 (stereo not given in full)
47 µM: TGI [8]
30.2 µM: TGI [3]
40.9 µM: TGI [6]
44.2 µM: TGI [7]
33.9 µM: TGI [1]
35.7 µM: TGI [4]
37.1 µM: TGI [5]
41.3 µM: TGI [2]

O=C1OC(c2ccccc2)C2CC3CC4(CCC3CN12)OCCO4 (stereo not given)
> 100 µM: TGI [1] | TGI [2] | TGI [3] | TGI [4] | TGI [5] | TGI [6] | TGI [7] | TGI [8]

COC(=O)CCC(=O)CC(=O)C(=O)Nc1ccc(F)cc1
> 100 µM: TGI [1] | TGI [2] | TGI [3] | TGI [4] | TGI [5] | TGI [6] | TGI [7] | TGI [8]

N#Cc1ccc(/C=N\N2C(=O)c3ccccc3C2=O)cc1
> 100 µM: TGI [1] | TGI [2] | TGI [3] | TGI [5] | TGI [6] | TGI [7] | TGI [8]

Cc1ccccc1N=Cc1ccc(N(CCC#N)S(=O)(=O)c2ccccc2)cc1
> 100 µM: TGI [1] | TGI [2] | TGI [3] | TGI [4] | TGI [5] | TGI [6] | TGI [7] | TGI [8]

COCC1C(=O)c2cc3c(cc2C12C=CC1(C=C2)OCCO1)OCO3 (stereo not given)
29.8 µM: TGI [6]
29.4 µM: TGI [3]
14 µM: TGI [4]
15 µM: TGI [2]
36.2 µM: TGI [1]
29.3 µM: TGI [5]
9.6 µM: TGI [7]

CCOC(=O)NC(=O)c1cn(CCCCCOC(=O)NCCCCCCNC(=O)OCCCCCn2cc(C(=O)NC(=O)OCC)c(=O)[nH]c2=O)c(=O)[nH]c1=O
> 100 µM: TGI [1] | TGI [2] | TGI [3] | TGI [4] | TGI [5] | TGI [6] | TGI [7]
